Measured values taken from patent US20070104644A1, “Inhibitor imaging agents” (priority 2003, published 2007).
One block for each molecule: values may come before it.

Assays:
[1] = test system: Lewis lung carcinoma (LLC) tumour; assay: Biodistribution in LLC tumour model in vivo; set-up: species or system C57BL/6 mice
Method: 1×10^6 Lewis lung carcinoma (LLC) cells are injected subcutaneously into right inner thigh of C57BL/6 mice. Tumours were allowed to grow for 15 days prior to biodistribution being carried out.
Biodistribution studies were performed in the LLC tumour model.
Biodistribution was performed in the LLC tumour model of Example 23 with Compounds 46B and 48B.

[2] = In vitro rat plasma stability; assay type: in vitro ADME
Method: Plasma and in vivo stability studies were performed with Compound 24A to determine the stability and metabolism of the compound.

[3] = In vivo stability and metabolism in the rat
From the text: Only plasma and bile samples could be analysed due to insufficient radioactivity within the urine.

[4] = test system: MDA-MB-231 tumour (human breast carcinoma xenograft); assay: Imaging in MDA-MB-231 tumour model in vivo
Method: Imaging was performed with Compound 24A in the MDA-MB-231 tumour model (a human breast carcinoma xenograft model). […] 1999 May;17(3):231-8; • Lee et al, Eur. J Cancer, 2001; 37:106-113. • Weber et al Int J Oncol.

[5] = test system: ApoE −/− mice, carotid artery; assay: Biodistribution in ApoE ligation model of atherosclerosis (ligated and sham); assay type: in vivo
From the text: ApoE −/− mice are transgenic knock-out mice, which lack the ApoE gene, and are therefore unable to regulate their plasma cholesterol levels. As a consequence ApoE mice develop atherosclerotic lesions, a process which is accelerated with feeding of high fat diet. Further acceleration of lesion development can be achieved by ligating the carotid artery, resulting in advanced lesion formation within 4 weeks of surgery and high fat diet feeding.
Two controls have been used for these experiments: (1) ApoE sham animals in which the mice undergo the same surgical intervention but the sture is only passed beneath the carotid and then removed and, (2) C57BL/6 ligtaed animals which undergo the same surgical ligation and high fat feeding as the ApoE ligated mice. Literature reports have stated that these animals do have some level of tissue remodelling, but with lower active MMP levels [Ivan et al, Circulation, 105, 2686-2691 (2002)].

MMP-9 = MMP-9 (Homo sapiens, UniProt P14780); assay: MMP-9 colorimetric assay kit (Biomol AK-410); assay type: biochemical
Sequence of MMP-9 (P14780 94-707): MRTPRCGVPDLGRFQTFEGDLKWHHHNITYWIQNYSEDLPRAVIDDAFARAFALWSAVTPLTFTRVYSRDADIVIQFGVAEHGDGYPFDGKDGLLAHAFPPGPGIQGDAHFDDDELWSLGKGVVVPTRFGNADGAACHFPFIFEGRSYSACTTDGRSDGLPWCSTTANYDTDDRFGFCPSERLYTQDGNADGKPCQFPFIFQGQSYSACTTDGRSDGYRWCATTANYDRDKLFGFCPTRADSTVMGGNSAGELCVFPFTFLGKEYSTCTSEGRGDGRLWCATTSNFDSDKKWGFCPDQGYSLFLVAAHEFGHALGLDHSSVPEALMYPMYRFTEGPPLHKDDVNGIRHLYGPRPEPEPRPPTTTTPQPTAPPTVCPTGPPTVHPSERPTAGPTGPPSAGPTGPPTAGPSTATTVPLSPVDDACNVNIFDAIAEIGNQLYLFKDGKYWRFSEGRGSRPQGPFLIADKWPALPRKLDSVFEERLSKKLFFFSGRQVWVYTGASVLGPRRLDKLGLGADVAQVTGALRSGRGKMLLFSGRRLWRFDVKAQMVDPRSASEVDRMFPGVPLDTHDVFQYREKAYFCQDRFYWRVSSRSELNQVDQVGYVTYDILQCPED
Method: (§1) Compounds were screened using the following commercially available Biomol assay kits: • MMP-1 colorimetric assay kit—Catalogue number AK-404, • MMP-2 colorimetric assay kit—Catalogue number AK-408, • MMP-8 calorimetric assay kit—Catalogue number AK-414, • MMP-9 calorimetric assay kit—Catalogue number AK-410, • MMP-12 colorimetric assay kit—Catalogue number AK-402, Which are available from Affiniti Research Products Ltd. (Palatine House, Matford Court, Exeter, EX2 8NL, UK).
(§2) Inhibitors were provided in powdered form, and stored at 4° C. For each inhibitor a 1 mM stock solution in DMSO was prepared, dispensed into 20 μl aliquots and these aliquots stored at −20° C. The stock solution was diluted to give 8 inhibitor concentrations (recommended: 50 μM, 5 μM, 500 nM, 50 nM, 5 nM, 500 pM, 50 pM and 5 pM). Dilutions were made in the kit assay buffer. A five-fold dilution of the inhibitor stocks is made on addition to the assay wells, therefore final concentration range was from 10 μM to 1 pM.
(§3) Details are provided with the commercial kit, but can be summarised as follows: • Prepare test compound dilutions as above, • Add assay buffer to plate, • Add test compounds to plate • Prepare standard kit inhibitor NNGH (see kit for dilution factor) • Add NNGH to control inhibitor wells • Prepare MMP enzyme (see kit for dilution factor) • Add MMP to plate • Incubate plate at 37° C. for ˜15 min • Prepare thiopeptolide substrate (see kit for dilution factor) • Add substrate to plate • Count every 2 min for 1 hr, 37° C., 414 nm on a Labsystems iEMS plate reader (for MMP-1 count every 30 seconds for 20 minutes).

MMP-8 = MMP-8 (Homo sapiens, UniProt P22894); assay: MMP-8 colorimetric assay kit (Biomol AK-414); assay type: biochemical
Sequence of MMP-8 (P22894 101-467): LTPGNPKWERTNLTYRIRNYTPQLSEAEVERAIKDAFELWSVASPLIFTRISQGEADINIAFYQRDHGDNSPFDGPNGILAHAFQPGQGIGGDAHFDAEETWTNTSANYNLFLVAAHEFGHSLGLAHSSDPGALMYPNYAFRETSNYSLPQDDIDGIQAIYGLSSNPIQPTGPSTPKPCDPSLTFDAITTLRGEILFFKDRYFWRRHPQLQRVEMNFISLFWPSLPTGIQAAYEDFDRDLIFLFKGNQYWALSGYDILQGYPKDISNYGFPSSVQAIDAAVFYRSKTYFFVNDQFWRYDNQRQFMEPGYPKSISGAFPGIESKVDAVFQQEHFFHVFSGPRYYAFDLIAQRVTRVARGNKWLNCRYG
Method: as §1, §2, §3

MMP-1 = target: T1, MMP-1 (Homo sapiens, UniProt P03956); assay: MMP-1 colorimetric assay kit (Biomol AK-404); assay type: biochemical
T1 sequence (P03956 100-469): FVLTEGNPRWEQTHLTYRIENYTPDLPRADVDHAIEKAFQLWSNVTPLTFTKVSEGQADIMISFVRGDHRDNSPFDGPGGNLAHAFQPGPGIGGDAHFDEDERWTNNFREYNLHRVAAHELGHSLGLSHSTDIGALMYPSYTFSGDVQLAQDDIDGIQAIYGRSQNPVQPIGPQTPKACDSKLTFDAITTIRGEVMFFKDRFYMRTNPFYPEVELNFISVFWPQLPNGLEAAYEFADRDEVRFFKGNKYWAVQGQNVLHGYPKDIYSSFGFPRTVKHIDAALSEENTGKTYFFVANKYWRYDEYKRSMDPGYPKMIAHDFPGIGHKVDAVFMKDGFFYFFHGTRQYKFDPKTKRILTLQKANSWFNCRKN
Method: as §1, §2, §3

MMP-2 = target: T2, MMP-2 (Homo sapiens, UniProt P08253); assay: MMP-2 colorimetric assay kit (Biomol AK-408); assay type: biochemical
T2 sequence (P08253 110-660): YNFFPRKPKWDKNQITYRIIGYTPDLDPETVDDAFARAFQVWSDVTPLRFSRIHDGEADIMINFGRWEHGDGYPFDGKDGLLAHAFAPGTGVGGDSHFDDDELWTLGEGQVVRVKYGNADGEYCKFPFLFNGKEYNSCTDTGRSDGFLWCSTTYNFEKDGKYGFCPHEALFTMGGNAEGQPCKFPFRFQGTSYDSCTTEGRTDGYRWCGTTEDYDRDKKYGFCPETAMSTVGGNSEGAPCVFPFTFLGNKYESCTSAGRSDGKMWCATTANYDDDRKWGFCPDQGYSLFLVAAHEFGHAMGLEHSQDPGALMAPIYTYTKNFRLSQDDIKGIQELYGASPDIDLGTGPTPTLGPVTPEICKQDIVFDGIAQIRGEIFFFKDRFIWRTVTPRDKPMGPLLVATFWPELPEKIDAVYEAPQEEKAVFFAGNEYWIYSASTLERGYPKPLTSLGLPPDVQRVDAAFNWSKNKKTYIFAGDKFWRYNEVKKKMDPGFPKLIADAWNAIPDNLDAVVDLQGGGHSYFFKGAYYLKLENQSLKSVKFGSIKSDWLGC
Method: as §1, §2, §3

MMP-12 = MMP-12 (Homo sapiens, UniProt P39900); assay: MMP-12 colorimetric assay kit (Biomol AK-402); assay type: biochemical
Sequence of MMP-12 (P39900 106-470): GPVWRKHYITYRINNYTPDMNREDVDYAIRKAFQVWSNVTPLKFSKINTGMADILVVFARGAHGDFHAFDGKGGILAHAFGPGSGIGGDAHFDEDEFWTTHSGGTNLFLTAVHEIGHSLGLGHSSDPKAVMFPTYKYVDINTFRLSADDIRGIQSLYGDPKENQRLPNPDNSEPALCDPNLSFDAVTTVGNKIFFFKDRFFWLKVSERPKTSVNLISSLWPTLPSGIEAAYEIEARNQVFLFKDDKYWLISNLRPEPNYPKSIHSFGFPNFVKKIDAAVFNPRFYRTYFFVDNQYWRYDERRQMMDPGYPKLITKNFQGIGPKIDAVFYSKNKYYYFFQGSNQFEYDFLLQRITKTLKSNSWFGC
Method: as §1, §2, §3

[6] = ApoE Ligated, 5 min post injection
[7] = ApoE Ligated, 60 min post injection
[8] = ApoE Sham, 60 min post injection

- Ki (MMP-9): 0.37 nM
- Ki (MMP-8): 2.17 nM
- Ki (MMP-1): 330 nM
- Ki (MMP-2): 0.62 nM
- Ki (MMP-12): 0.89 nM
Structure (SMILES): NC(=O)[C@H](Cc1ccc(O)c(I)c1)NC(=O)CCOCCOCCOCCOCCOCCOCCOCCOCCOCCOCCOCCNC(=O)CCOCCOCCOCCOCCOCCOCCOCCOCCOCCOCCOCCNC(=O)CCN(C1(C(=O)NO)CCCC1)S(=O)(=O)c1ccc(Oc2ccc(F)cc2)cc1 [Compound 32]

- Ki (MMP-9): 0.99 nM
- Ki (MMP-2): 1.25 nM
- Ki (MMP-12): 0.05 nM
Structure (SMILES): NC(=O)[C@H](Cc1ccc(O)c(I)c1)NC(=O)COCC(=O)NCCOCCOCCOCCNC(=O)[C@H](CCC(=O)O)NC(=O)[C@H](CCC(=O)O)NC(=O)[C@H](CCC(=O)O)NC(=O)[C@H](CCC(=O)O)NC(=O)[C@H](CCC(=O)O)NC(=O)CCN(C1(C(=O)NO)CCCC1)S(=O)(=O)c1ccc(Oc2ccc(F)cc2)cc1 [Compound 38]

Continued, molecule first:

Structure (SMILES): O=C(CCN(C1(C(=O)NO)CCCC1)S(=O)(=O)c1ccc(Oc2ccc(F)cc2)cc1)NCCc1ccc(O)c([123I])c1 [Compound 24A]
- Background tissue uptake [1]: low background tissue uptake
- Blood clearance / retention [1]: cleared very rapidly from the blood
- Route of excretion [1]: primarily excreted through the hepatobiliary system (HBS)
- Tumour uptake and retention [1]: Some retention was seen within tumour tissue
- % ID Urinary (urinary excretion), mean ([1]; 5 min post injection): 7.17 % ID
- % ID/g Tumour, mean ([1]; 5 min post injection): 0.6 % ID/g
- Tumour/Blood, mean ([1]; 5 min post injection): 0.32
- Tumour/Heart, mean ([1]; 5 min post injection): 0.27
- Tumour/Lung, mean ([1]; 5 min post injection): 0.22
- Tumour/Muscle, mean ([1]; 5 min post injection): 1.19
- % ID Urinary (urinary excretion), mean ([1]; 30 min post injection): 6.89 % ID
- % ID/g Tumour, mean ([1]; 30 min post injection): 0.56 % ID/g
- Tumour/Blood, mean ([1]; 30 min post injection): 0.59
- Tumour/Heart, mean ([1]; 30 min post injection): 0.57
- Tumour/Lung, mean ([1]; 30 min post injection): 0.39
- Tumour/Muscle, mean ([1]; 30 min post injection): 1.6
- % ID Urinary (urinary excretion), mean ([1]; 60 min post injection): 5.5 % ID
- % ID/g Tumour, mean ([1]; 60 min post injection): 0.48 % ID/g
- Tumour/Blood, mean ([1]; 60 min post injection): 0.46
- Tumour/Heart, mean ([1]; 60 min post injection): 0.68
- Tumour/Lung, mean ([1]; 60 min post injection): 0.37
- Tumour/Muscle, mean ([1]; 60 min post injection): 1.41
- % ID Urinary (urinary excretion), mean ([1]; 120 min post injection): 7.22 % ID
- % ID/g Tumour, mean ([1]; 120 min post injection): 0.6 % ID/g
- Tumour/Blood, mean ([1]; 120 min post injection): 0.66
- Tumour/Heart, mean ([1]; 120 min post injection): 1.23
- Tumour/Lung, mean ([1]; 120 min post injection): 0.85
- Tumour/Muscle, mean ([1]; 120 min post injection): 1.87
- In vitro rat plasma stability ([2]; 2 hours, 37° C.): good stability
- RCP of parent compound ([2]; start of incubation at 37° C.): 93%
- RCP of parent compound ([2]; through 2 hours incubation at 37° C.): 80%
- Metabolites detected in bile samples ([3]; in vivo): 4
- Metabolites detected in plasma samples ([3]; in vivo): One metabolite
- Free iodide in plasma samples ([3]; in vivo, through time): increasing amount of free iodide
- In vivo stability and metabolism ([3]; through time in vivo): slight instability and metabolism
- Tumour hotspots on imaging [4]: seen from 5 to 120 minutes post injection
- % ID/G Carotid, mean [5, 6]: 2.67 % ID/G
- Carotid/Blood, mean [5, 6]: 0.94
- Carotid/Heart, mean [5, 6]: 0.48
- Carotid/Lung, mean [5, 6]: 0.62
- % ID/G Carotid, mean [5, 7]: 2.00 % ID/G
- Carotid/Blood, mean [5, 7]: 1.97
- Carotid/Heart, mean [5, 7]: 1.03
- Carotid/Lung, mean [5, 7]: 1.71
- % ID/G Carotid, mean [5, 8]: 0.25 % ID/G
- Carotid/Blood, mean [5, 8]: 0.19
- Carotid/Heart, mean [5, 8]: 0.21
- Carotid/Lung, mean [5, 8]: 0.17

Structure (SMILES): O=C(CCN(C1(C(=O)NO)CCCC1)S(=O)(=O)c1ccc(Oc2ccc(F)cc2)cc1)NCCc1ccc(O)c(I)c1 [Compound 24]
- Ki (MMP-9): 0.58 nM
- Ki (MMP-8): 3.93 nM
- Ki (MMP-1): 4950 nM
- Ki (MMP-2): 0.14 nM
- Ki (MMP-12): 0.67 nM

Structure (SMILES): NC(=O)[C@H](CCCCNC(=O)CON=Cc1ccc(F)cc1)NC(=O)CCN(C1(C(=O)NO)CCCC1)S(=O)(=O)c1ccc(Oc2ccc(F)cc2)cc1 [Compound 46]
- Ki (MMP-9): 0.44 nM
- Ki (MMP-8): 0.52 nM
- Ki (MMP-1): 172 nM
- Ki (MMP-2): 1.96 nM
- Ki (MMP-12): 0.17 nM
